Experimental data as given in patent EP0637247B1, “TREATMENT OF HERPESVIRUS INFECTION” (priority 1992, dated 1993).
Where two headings read alike, the source gives them in different places. Where a SMILES comes first, the peptide text is derived from it. [ ]: non-standard residue; d: D form.

Legend:
HSV-1 F = assay type: cell-based; conditions: plaque reduction, HSV-1 F on Vero cell monolayers, peptide pretreatment 25 hours, replication 2 to 3 days
Description: Selected compounds were first formulated as 10 mM stocks in water for in vitro and cell culture procedures. The stocks are then diluted into buffers used for specific assays, or into cell culture media. For animal studies peptides are diluted into phosphate buffer saline.
Results of the plaque reduction assay performed with various peptides, expressed in terms of IC50 are tabulated below: […]

HSV-1 strain F = conditions: mice, foot-pad injections in PBS, one week pretreatment then three times weekly; particularly at the doses of 5 and 50µg/mouse
Description: After pretreatment, the left footpad was inflamed by injecting about 5 µL of 1M NaCl. After about 6 hours, the same footpad was abraded and a drop of HSV-1 strain F (2 x 10^3 pfu/ml) was then added deposited on the inflamed footpad.

## CC(=O)N[C@H](CCCNC(=N)N)C(=O)N[C@H](CCCCN)C(=O)N[C@H](CCCCN)C(=O)N[C@H](CCCNC(=N)N)C(=O)N[C@H](CCCNC(=N)N)C(=O)N[C@H](CCC(N)=O)C(=O)N[C@H](CCCNC(=N)N)C(=O)N[C@H](CCCNC(=N)N)C(N)=O (Ac-[dR][dK][dK][dR][dR][dQ][dR][dR]-NH2)
HSV-1 F; read-out: IC50
  IC50: > 20 µM

## CC[C@H](C)[C@H](NC(=O)[C@H](C)NC(=O)[C@@H](NC(=O)[C@H](Cc1ccccc1)NC(C)=O)[C@@H](C)CC)C(=O)N[C@@H](C)C(=O)N[C@H](CCCNC(=N)N)C(=O)N[C@H](CCCCN)C(=O)N[C@H](CCCCN)C(=O)N[C@H](CCCNC(=N)N)C(=O)N[C@H](CCCNC(=N)N)C(=O)N[C@H](CCC(N)=O)C(=O)N[C@H](CCCNC(=N)N)C(=O)N[C@H](CCCNC(=N)N)C(N)=O (Ac-FIAIA[dR][dK][dK][dR][dR][dQ][dR][dR]-NH2)
HSV-1 F; read-out: IC50
  IC50: 10 µM

## CC(=O)N[C@H](CCCNC(=N)N)C(=O)N[C@H](CCCNC(=N)N)C(=O)N[C@H](CCCNC(=N)N)C(=O)N[C@H](CCCNC(=N)N)C(=O)N[C@H](CCCNC(=N)N)C(=O)N[C@H](CCCNC(=N)N)C(=O)N[C@H](CCCNC(=N)N)C(=O)N[C@H](CCCNC(=N)N)C(=O)N[C@H](CCCNC(=N)N)C(N)=O [acetyl-[D-Arg]9-NH2]
HSV-1 strain F
  anti-herpetic effect in vivo (Figure 3): anti-herpetic result

## CC(=O)N[C@H](CCCNC(=N)N)C(=O)N[C@H](CCCNC(=N)N)C(=O)N[C@H](CCCNC(=N)N)C(=O)N[C@H](CCCNC(=N)N)C(=O)N[C@H](CCCNC(=N)N)C(=O)N[C@H](CCCNC(=N)N)C(=O)N[C@H](CCCNC(=N)N)C(N)=O [acetyl-[D-Arg]7-NH2, acetyl-[D-(Arg)7]-NH2]
HSV-1 F
  IC50: slight
